Source: patent publication US10787444B2, “Compounds for the modulation of myc activity” (Syros Pharmaceuticals, Inc., priority 2015, dated 2020)
Where a name gives a salt, the structure may show the parent alone. Read-outs that look alike come from different tables or passages of the source.

Experiments:
c-Myc/Max/Ebox DNA = molecular target: T1, c-Myc/Max/Ebox DNA (Homo sapiens, UniProt P01106); assay: c-Myc/Max/Ebox DNA AlphaScreen Assay; assay type: binding; conditions: calculated IC50 class
T1 construct: his6 (cleaved yes)
Procedure: Compounds of the invention were assayed for c-Myc/Max/EBox activity as described in the following protocol. Human his6-c-Myc and his6-Max were used with biotinylated DNA containing a single Ebox sequence (biotin[…]) purchased from MWG Operon. Free c-Myc was generated from his6-c-Myc through thrombin cleavage of the his6 tag. For 384-well plate assays, 10 μL of a 2× solution of free c-Myc (20 nM final), Ni^2+ coated Acceptor Beads (25 μg/ml final), and biotinylated Ebox oligo (10 nM final) were added to 384-well plates with a Biotek EL406 liquid handler. 50 nL of compounds from stock plates were added by pin transfer using a Janus Workstation (PerkinElmer), allowing the compounds to interact with c-Myc prior to c-Myc binding with Max. In the current assay, DMSO was not allowed to exceed 2% v/v of the assay. 10 μl of 2× master mix containing streptavidin-coated donor beads (25 μg/ml final) and his6-Max (5 nM) were added. AlphaScreen measurements were performed on an Envision plate reader (PerkinElmer) utilizing the manufacturer's protocol.
Both master mixes were made in room temperature assay buffer (50 mM HEPES, 150 mM NaCl, 0.2% w/v BSA, 0.02% w/v Tween20, 40 μg/ml glycogen, 500 μM DTT, pH 8.0, wherein both DTT and glycogen were added fresh). Alpha beads were added to respective master solutions. All subsequent steps were performed in low light conditions. Solution 1:2× solution of components with final concentrations of c-Myc Ni-coated Acceptor Beads (25 μg/ml), and biotinylated Ebox oligo (10 nM). Solution 2:2× solution of streptavidin-coated donor beads (25 μg/ml final) and his6-Max 10 μL. […] 50 nL of compounds from stock plates were added by pin transfer using a Janus Workstation. Solution 2 (10 μl) was added with the liquid handler. Plates were sealed with foil to block light exposure and prevent evaporation. Plates were very briefly centrifuged followed by 2 hour incubation. […] Excitation was at 680 nm for donor bead release of singlet oxygen and emission was read with a bandpass filter from 520-620 nm.

[1] = test system: human small lung cancer cell line H2171; assay: Cell Viability Assay (ATPlite); assay type: cell-based; conditions: read-out: H2171 Activity
Procedure: Compounds of the invention were assayed for cell viability using the human small lung cancer cell line H2171 as described in the following protocol. Cells were counted and adjusted to 20,000 cells/mL. Using a Biotek EL406, 50 μL of cells in media were distributed into 384 well white plates from Thermo. Immediately after plating, compound in DMSO was distributed to plates. Compounds were added to plates using a 50 nL 384 well pin transfer manifold on a Janus workstation. Stocks were arrayed in 10 point dose response in DMSO stock in 384 well Greiner compound plates. After the addition of compounds, plates were incubated for three days in a 37° C. incubator. Cell viability was read out using ATPlite from Perkin Elmer. Lyophilized powder was resuspended in lysis buffer and diluted 1:2 with deionized water. 25 μL of this solution was added to each well using the Biotek liquid handler. Plates were incubated for 15 minutes at room temperature before signal was read on an Envision Plate Reader. The data from this assay are summarized in Tables 2 and 3 below (H2171 activity).

[2] = Homo sapiens, NCI-H2171, 72 h, Table 2, compounds of FIG. 1, H2171 cells, three days, ATPlite, calculated IC50 class
[3] = Homo sapiens, NCI-H2171, 72 h, Table 3, compounds of FIG. 2, H2171 cells, three days, ATPlite, calculated IC50 class
[4] = Table 2, compounds of FIG. 1, H2171 cells, three days, ATPlite, calculated IC50 class

T1 sequence (P01106 whole entry): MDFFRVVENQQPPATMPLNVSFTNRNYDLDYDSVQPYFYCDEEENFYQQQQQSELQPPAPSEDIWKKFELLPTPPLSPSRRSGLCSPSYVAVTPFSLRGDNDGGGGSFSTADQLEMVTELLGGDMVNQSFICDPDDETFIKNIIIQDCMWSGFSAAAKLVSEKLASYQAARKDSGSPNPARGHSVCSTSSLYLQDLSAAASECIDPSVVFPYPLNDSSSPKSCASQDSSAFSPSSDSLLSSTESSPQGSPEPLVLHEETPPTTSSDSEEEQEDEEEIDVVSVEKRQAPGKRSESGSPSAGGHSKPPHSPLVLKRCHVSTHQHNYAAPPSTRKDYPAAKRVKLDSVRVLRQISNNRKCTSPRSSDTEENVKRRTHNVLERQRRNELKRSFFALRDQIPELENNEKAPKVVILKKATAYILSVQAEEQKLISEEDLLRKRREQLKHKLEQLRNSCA

Row | IC50 (c-Myc/Max/Ebox DNA; Table 2, compounds of FIG. 1) [nM] | IC50 [1, 2] [nM] | Structure (SMILES) | further results
1 | < 300 | < 300 | COCCNCCC(=O)Nc1sc2c(c1-c1nc3cc(-c4cnn(C)c4)ccc3s1)CCNC2 [compound 184] | –
2 | < 300 | < 300 | COCCNCCC(=O)Nc1sc2c(c1-c1nc3cc(-c4cncc(N)c4)ccc3s1)CCNC2 [compound 443] | –
3 | < 300 | < 300 | COCCNCCC(=O)Nc1sc2c(c1-c1nc3cc(C)ccc3s1)CCNC2 [Compound 314, 3-((2-Methoxyethyl)amino)-N-(3-(5-methylbenzo[d]thiazol-2-yl)-4,5,6,7-tetrahydrothieno[2,3-c]pyridin-2-yl)propanamide] | –
4 | – | > 10000 | CCOC(=O)CNCCC(=O)Nc1sc2c(c1-c1nc3ccccc3s1)CCNC2 [Compound 148, Ethyl (3-((3-(benzo[d]thiazol-2-yl)-4,5,6,7-tetrahydrothieno[2,3-c]pyridin-2-yl)amino)-3-oxopropyl)glycinate hydrochloride] | –
5 | – | < 300 | Cn1cc(CNCCC(=O)Nc2sc3c(c2-c2nc4ccccc4s2)CCNC3)cn1 [Compound 143, N-(3-(benzo[d]thiazol-2-yl)-4,5,6,7-tetrahydrothieno[2,3-c]pyridin-2-yl)-3-(((1-methyl-1H-pyrazol-4-yl)methyl)amino)propanamide] | –

Further lines, the compound ahead of its results:

Row | Structure (SMILES) | IC50 (c-Myc/Max/Ebox DNA; Table 2, compounds of FIG. 1) [nM] | IC50 [1, 2] [nM] | further results
6 | COCCNCCC(=O)Nc1sc2c(c1-c1nc3ccc(-c4cccc(C(=O)NCCN(C)C)c4)cc3s1)CCNC2 [compound 493] | < 300 | < 300 | –
7 | CC(=O)Nc1sc2c(c1-c1nc3ccc(C)cc3s1)CCNC2 [Compound 224, N-(3-(6-methylbenzo[d]thiazol-2-yl)-4,5,6,7-tetrahydrothieno[2,3-c]pyridin-2-yl)acetamide] | – | – | IC50 (c-Myc/Max/Ebox DNA; Table 3, compounds of FIG. 2): 300 to 1000 nM; IC50 [1, 3]: > 10000 nM
8 | CC(=O)Nc1sc2c(c1-c1nc3cc(C(F)(F)F)ccc3s1)CCNC2 [Compound 204, N-(3-(5-(trifluoromethyl)benzo[d]thiazol-2-yl)-4,5,6,7-tetrahydrothieno[2,3-c]pyridin-2-yl)acetamide] | – | – | IC50 (c-Myc/Max/Ebox DNA; Table 3, compounds of FIG. 2): 1000 to 10000 nM; IC50 [1, 3]: 1000 to 10000 nM
9 | COCCNCCC(=O)Nc1sc2c(c1-c1nc3ccc(-c4cnn(C(C)C)c4)cc3s1)CCNC2 [compound 358] | < 300 | < 300 | –
10 | CC(C)NCCC(=O)Nc1sc2c(c1-c1nc3cc(N4CCOCC4)ccc3s1)CCNC2 [compound 302] | < 300 | < 300 | –
11 | CC(=O)Nc1sc2c(c1-c1nc3ccccc3s1)C(F)CN(C(C)C)C2 (centres unmarked) [Compound 220, N-(3-(benzo[d]thiazol-2-yl)-4-fluoro-6-isopropyl-4,5,6,7-tetrahydrothieno[2,3-c]pyridin-2-yl) acetamide] | – | – | IC50 (c-Myc/Max/Ebox DNA; Table 3, compounds of FIG. 2): 1000 to 10000 nM; IC50 ([1]; Homo sapiens, NCI-H2171, 72 h): > 10000 nM
12 | COCCNCCC(=O)Nc1sc2c(c1-c1nc3cc(-c4ccnc(F)c4)ccc3s1)CCNC2 [compound 458] | < 300 | < 300 | –
13 | CCC(C)NCCC(=O)Nc1sc2c(c1-c1nc3cc(Br)ccc3s1)CCN(C(C)C)C2 (centres unmarked) [Compound 145, N-(3-(5-Bromobenzo[d]thiazol-2-yl)-6-isopropyl-4,5,6,7-tetrahydrothieno[2,3-c]pyridin-2-yl)-3-(sec-butylamino)propanamide] | – | – | IC50 [1, 4]: 300 to 1000 nM
14 | CCC(C)NCCC(=O)Nc1sc2c(c1-c1nc3cc(I)ccc3s1)CCN(C(C)C)C2 (centres unmarked) [Compound 162, 3-(sec-butylamino)-N-(3-(5-iodobenzo[d]thiazol-2-yl)-6-isopropyl-4,5,6,7-tetrahydrothieno[2,3-c]pyridin-2-yl)propanamide dihydrochloride] | – | 1000 to 10000 | –
15 | CCC(C)NCCC(=O)Nc1sc2c(c1-c1nc3cc(Br)ccc3s1)CCN(C(C)C)C2 (centres unmarked) [Compound 141, N-(3-(5-bromobenzo[d]thiazol-2-yl)-6-isopropyl-4,5,6,7-tetrahydrothieno[2,3-c]pyridin-2-yl)-3-(sec-butylamino)propanamide] | – | 300 to 1000 | –
16 | CCC(C)NCCC(=O)Nc1sc2c(c1-c1nc3ccccc3s1)CCNC2 (centres unmarked) [Compound 607, N-(3-(benzo[d]thiazol-2-yl)-4,5,6,7-tetrahydrothieno[2,3-c]pyridin-2-yl)-3-(sec-butylamino)propanamide] | – | – | IC50 [1, 4]: < 300 nM
